Experimental data published in ChEMBL document CHEMBL1155559, “Hepatoprotective diastereomeric lignans from Saururus chinensis herbs” (J Nat Prod, 2000).

Each compound was assayed on Hepatocyte (assay: Hepatoprotective activity in Wistar rat CCL4-damaged hepatocyte assessed as blockade of glutamic pyruvic transaminase release at 100 uM relative to control).
Assay type: functional, cell-based
`C[C@@H]1[C@H]2c3cc4c(cc3O[C@@]35OCOC3=CC(=O)[C@H](C[C@H]1C)[C@H]25)OCO4` [SAUCHINONE A] gave an Activity of 78.2%.
`C[C@@H]1[C@H]2c3cc4c(cc3O[C@@]35OCOC3=CC(=O)[C@H](C[C@H]1C)[C@@H]25)OCO4` [SAUCHINONE] was tested, and the Activity was 70.1%.
Compound `C[C@@H]1[C@H]2c3cc4c(cc3O[C@@]35OCOC3=CC(=O)[C@@H](C[C@H]1C)[C@@H]25)OCO4` has an Activity of 75.9%.
In the case of `COc1cc(C2Oc3cc([C@H]4Oc5cc(O)cc(O)c5C(=O)[C@@H]4O)ccc3OC2CO)ccc1O` (some centres undefined) [SILIBININ], the Activity was 76.6%.
